Measured values: patent US6030943A, “Dehydrodidemnin B as an L-type calcium channel enhancer” (priority 1998, dated 2000)
Starred links: 1 amine or outer side, 2 acyl side, 3 side chain; linkers in the order of their positions; H or OH if unused. Positions of bridges follow the written chain, without caps; N, C: chain ends. Non-standard residues stand in square brackets, D forms with d. Residues, ends and D or L forms follow the SMILES beside them. *: point of attachment. X1 = CC[C@H](C)[C@@H](N[*:1])[C@@H](O)CC(=O)O[C@H](C(=O)[C@H](C)C(=O)[*:2])C(C)C; NMeY = CN[C@@H](Cc1ccc(O)cc1)C(=O)O; dNMeL = CN[C@H](CC(C)C)C(=O)O; Pyruvoyl = CC(=O)C(=O)*

How the values were obtained:
[1] = tested on: L-type calcium channel; assay: Whole-cell patch clamp measurement of calcium current (ICa) in isolated human atrial myocytes; type: cell-based; conditions: for action on human atrial ICa (current amplitude): whole-cell patch clamp, 22° C., composite dose-response curve (FIG. 2), compared with cells not exposed to drug
Procedure: Human atrial myocytes were obtained from specimens of human right atrial appendage obtained during surgery from hearts of patients undergoing cardiopulmonary bypass. Tissue samples were quickly immersed in a cardioplegia solution consisting of (in mmol/L): 50 KH2 PO4, 8 MgSO4, 10 NaHO3, 5 adenosine, 25 taurine, 140 glucose, and 100 mannitol, titrated to a pH of 7.4 and bubbled with 100% O2 at 0-4° C. Specimens were then minced into 0.5-1 mm cubes and transferred to a 50 ml conical tube containing an ultra-low calcium wash solution containing (in mmol/L); 137 NaCl, 5 KH2 PO4, 1 MgSO4, 10 taurine, 10 glucose, 5 HEPES, and 100 μmol/L (μM) EGTA; pH=7.4 (22-24° C.).
The tissue was next gently agitated by continuous bubbling with 100% O2 for 5 minutes. The tissue was then incubated in 5 ml of solution containing (in mmol/L): 137 NaCl, 5 KH2 PO4, 10 taurine, 10 glucose, 5 HEPES, supplemented with 0.1% bovine albumin, 2.2 mg/ml collagenase type V and 1.0 mg/ml protease type XXIV (Sigma Chemical), pH=7.4 (37° C.) and bubbled continuously with 100% O2. The supernatant was removed after 40 minutes and discarded. The chunks were incubated in a solution of the same ionic composition but supplemented with only collagenase and 100 μmol/L CaCl2.
Microscopic examination of the medium was performed every 5-10 minutes to determine the number and quality of the isolated cells. When the yield appears to be maximal, the cell suspension was centrifuged for 2 minutes and the resulting pellet was resuspended in a modified Kraftbruhe solution containing (in mmol/L): 25 KCl, 10 KH2 PO4, 25 taurine, 0.5 EGTA, 22 glucose, 55 glutamic acid, and 0.1% bovine albumin, pH=7.3 (22-24° C.). Cells were used within 8 hrs after isolation. […]
Ionic currents were measured using the whole-cell variant of the patch clamp technique. […]
Calcium (Ca) currents were measured using an external solution having the composition (in mM): 1.8 CaCl2, 137 NaCl, 20 CsCl, 4 KCl, 1 MgCl2, 10 HEPES, 10 dextrose pH=7.4 with NaOH. […]

[2] = Effect on blood pressure (statement, no method described); conditions: in vivo

Structure (SMILES) | L-type calcium channel enhancement ([1]; FIGS. 1A, 1B and 2) | action on human atrial ICa (current amplitude) [1] | effect on blood pressure [2]
CC[C@H](C)[C@H]1NC(=O)[C@@H](NC(=O)[C@@H](CC(C)C)N(C)C(=O)[C@@H]2CCCN2C(=O)C(C)=O)[C@@H](C)OC(=O)[C@H](Cc2ccc(OC)cc2)N(C)C(=O)[C@@H]2CCCN2C(=O)[C@H](CC(C)C)NC(=O)[C@@H](C)C(=O)[C@H](C(C)C)OC(=O)C[C@@H]1O [Aplidine, dehydrodidemnin B] (Pyruvoyl-P[dNMeL]T[X1]LP[NMeY](Me); ester 3-C) | potent L-type calcium channel enhancer | highly effective, producing a very large increase in current amplitude | no effect on blood pressure
CC[C@H](C)[C@H]1NC(=O)[C@@H](NC(=O)[C@@H](CC(C)C)N(C)C(=O)[C@@H]2CCCN2C(=O)C(C)O)[C@@H](C)OC(=O)[C@H](Cc2ccc(OC)cc2)N(C)C(=O)[C@@H]2CCCN2C(=O)[C@H](CC(C)C)NC(=O)[C@@H](C)C(=O)[C@H](C(C)C)OC(=O)C[C@@H]1O (stereo partly shown) [Didemnin B] | – | no effect | –
